Results from patent US20040106663A1, “Inhibitors of fungal invasion” (priority 2002, published 2004).
pIC50: −log10 of the molar value. Where “and” joins values, the source holds several entries; their conditions need not be identical. Equal values may be shown once. Read-outs that look alike come from different tables or passages of the source. Marks after values point to notes of the source that are not given here.

Legend:
[1] = system: logarithmic phase C. albicans (MC295) containing HWP1-lacZ; test: microbe, parasite or virus in culture; assay type: cell-based; details: Candida albicans
[2] = system: stationary phase C. albicans (MC295) containing HWP1-lacZ; test: microbe, parasite or virus in culture; assay type: cell-based, Candida albicans
[3] = system: C. albicans; test: C. albicans overnight growth inhibition; assay type: cell-based, Candida albicans; design: concentration or dose not given beside the values
[4] = system: C. albicans (MC303); test: C. albicans morphology assay (hyphae scored 1-5); details: scale 1-5; for C. albicans Phenotype Rating: invasion morphology phenotype, test compound at 10 μM
Procedure: In this assay, described in greater detail below, the morphology of cells was assessed and scored on a 1-5 scale. A score of 1 was assigned to non-hyphal cells, “yeast-like” cells and budding cells, and a score of 5 was assigned to cells having many, relatively long (wild-type) hyphae.
A frozen stock culture was prepared by streaking C. albicans (MC303: ura3 Δ:: imm434/ura3Δ:: imm434 arg4::hisG/arg4::hisG ade2:: URA3:.pTEF1-lacZ/ADE2 hisl::hisG/HIS1 gal1::ARG4/GAL1) cells on a YPD agar plate and grown at 30° C. for 14-18 h. An isolated colony was added to 5 mL of YPD broth and grown on a roller drum (60 rpm) for 14-18 h at 30° C. Next, 600 μL of culture were aliquotted into 1 mL of 25% glycerol, and the tubes are stored at −80° C.
Frozen MC303 C. albicans cell stock was struck for isolation of a single colony using a sterile loop on a YPD agar plate and grown at 30° C. for 14-18 h. A single colony was inoculated into 5 mL of YPD in a test tube and grown on a roller drum (60 rpm) for 2 days at 30° C. to late stationary phase (OD600˜30). For the assay, this stock was diluted to 2.5×10^5 cells/mL to make a 10× stock. Next, 10 μL of this cell stock was added to 80 μL of Inducing Media and 10 μL of 10× compound stock or DMSO in a Coming, tissue-culture treated, flat-bottom, microtiter plate. The plate was incubated at 37° C. for 24 h. Next, 10 μL of formaldehyde (37%) was added to each well and the cells were fixed for 10 min. The liquid was gently decanted from the plate and each well was examined under a microscope. Each well was photographed and observed cells are scored on a scale of 1-5. […] A 1 indicates cells are non-hyphal with only “yeast-like” cells and budding cells.
Scores of 2, 3, and 4 indicate shorter length or reduced quantity of hyphae when compared with WT (2 being very near non-hyphal and 4 being close to WT).

[5] = system: HepG2 human hepatoma cells; details: 4 h
Procedure: Mammalian Cell Toxicity Assay
To investigate the toxicity of Compound I for mammalian cells, human hepatoma cell line HepG2 were exposed to Compound I and the (LD50) was determined. Briefly, HepG2 human hepatoma cells (American Type Culture Collection, Bethesda Md.) were plated at 1×10^5 cells/well in tissue culture treated 96 well plates and incubated at 5% CO2, 37° C. for 18 h prior to initiation of the assay. The compound stocks at 100 mM in DMSO were added to DM (defined media, media without serum with added insulin, selenium and transferrin) at an initial concentration of 1000 μM and serially diluted 1 to 3 in DM in a 96 well plate. For 20 μL of a test solution, 3.5 μL sample is added to 346.5 μL media for an initial concentration of 1000 μM. These dilutions are added to the cells at final sample concentrations between 0.5 and 1000 μM (<1% DMSO). Controls included: media only (negative control) and 0.1% Triton-X (positive control). Control drugs (tamoxifen and 2-thiouracil) were also used to verify each assay. The samples were incubated at 37° C. in humidified 5% CO2 atmosphere for 4 h.
The plate was read directly on the Tecan Spectrafluor Plus reader in the fluorescent mode at excitation 530 nm and emission 595 nm. The blank was subtracted from the total fluorescence to give the net fluorescence for that well. This total was compared to the control in the absence of the compound. An LD50 (concentration at 50% of lethal dose) is calculated as the concentration that leads to a response of 50% compared to the control cells. Thus, cytotoxicity is measured as percent of inhibition of cell viability as determined by the Alamar Blue assay.

[6] = read-out: C. albicans LOG IC50, logarithmic phase growth invasion assay (converted)
[7] = Candida albicans, read-out: C. albicans STAT IC50, stationary phase growth invasion assay

| Compound | IC50 [1, 6] | pIC50 [2, 7] | C. albicans Overnight Growth Inhibition [3] | C. albicans Phenotype Rating [4] | AFDD Mammalian Cytotoxicity LD50 [5] | IC50 ([1]; read-out: concentration inhibiting invasion of logarithmic phase C. albicans by 50%, logarithmic phase) | IC50 ([2]; Candida albicans, read-out: concentration inhibiting invasion of stationary phase C. albicans by 50%, stationary phase) | mammalian cell LD50 [5] | average morphology score ([4]; 10 μM) | pIC50 ([2]; read-out: C. albicans STAT IC50, stationary phase growth invasion assay) |
| --- | --- | --- | --- | --- | --- | --- | --- | --- | --- | --- |
| CCCCCc1ccc(S(=O)(=O)Nc2cc(C)on2)cc1 | 9.28 nM | 5.85 | −49.4% | 4 | – | – | – | – | – | – |
| CCCCCCc1ccc(S(=O)(=O)Nc2cc(C)on2)cc1 | 9.9 nM | 5.54 | 32.5% | 2 and 4 and 5 | 449.1 µM | – | – | – | – | – |
| Cc1cc(NS(=O)(=O)c2ccc(-c3ccco3)cc2)no1 | 39 nM | < 4.70 | 23.9% | 4 | >1000 µM | – | – | – | – | – |
| Cc1ccc(-c2ccc(S(=O)(=O)Nc3cc(C)on3)cc2)cc1 | 41 nM | < 4.70 | 12.3% | – | >1000 µM | – | – | – | – | – |
| CCCCOc1ccc(S(=O)(=O)Nc2cc(C)on2)cc1 | 42 nM | 4.93 | −6.4% | – | >1000 µM | – | – | – | – | – |
| Cc1cc(NS(=O)(=O)c2ccc(-c3ccccc3C)cc2)no1 | 56 nM | < 4.70 | 4.8% | 5 | – | – | – | – | – | – |
| Cc1cc(NS(=O)(=O)c2ccc(CC3CCCC3)cc2)no1 | 79.2 nM | 5.35 | 0.9% | 2 and 4 and 5 | 660.9 µM | – | – | – | – | – |
| CCCCc1cc(F)c(S(=O)(=O)Nc2cc(C)on2)cc1F | 87 nM | < 4.70 | −14.5% | 5 | – | – | – | – | – | – |
| Cc1cc(NS(=O)(=O)c2ccc(-c3ccccc3)cc2)no1 | 89.3 nM | – | 19.5% | 2 and 5 | >1000 µM | – | – | – | – | – |
| Cc1cc(NS(=O)(=O)c2ccc(N3CCCC3)cc2)no1 | 91 nM | 5.43 | 4.4% | 4 and 5 | – | – | – | – | – | – |
| Cc1cc(NS(=O)(=O)c2ccc(C3CCCC3)cc2)no1 | 110 nM | 4.70 | 13.9% | 5 | – | – | – | – | – | – |
| Cc1cc(NS(=O)(=O)c2ccc(-c3cccc(Cl)c3)cc2)no1 | 110 nM | < 4.70 | 7.7% | 5 | – | – | – | – | – | – |
| CCc1ccc(-c2ccc(S(=O)(=O)Nc3cc(C)on3)cc2)cc1 | 115 nM | < 4.70 | −14.4% | 5 | – | – | – | – | – | – |
| Cc1cc(NS(=O)(=O)c2ccc(-c3ccc(F)c(C)c3)cc2)no1 | 116 nM | – | 2.6% | – | 601.4 µM | – | – | – | – | – |
| Cc1cc(NS(=O)(=O)c2ccc(-c3ccc(F)c(Cl)c3)cc2)no1 | 192 nM | < 4.70 | 18.6% | 5 | – | – | – | – | – | – |
| Cc1cc(NS(=O)(=O)c2ccc(-c3ccc(F)cc3)cc2)no1 | 294 nM | – | 12.7% | – | 983.2 µM | – | – | – | – | – |
| Cc1cc(NS(=O)(=O)c2ccc(-c3cc4ccccc4o3)cc2)no1 | 320 nM | 5.58 | 23.8% | 2* | – | – | – | – | – | – |
| Cc1cc(NS(=O)(=O)c2ccc(-c3sccc3C)cc2)no1 | 320 nM | < 4.70 | 11.5% | 5 | – | – | – | – | – | – |
| Cc1cc(NS(=O)(=O)c2ccc(-c3ccccc3F)cc2)no1 | 350 nM | < 4.70 | −4.3% | 5 | – | – | – | – | – | – |
| CCCSCc1ccc(S(=O)(=O)Nc2cc(C)on2)cc1 | 656 nM | < 4.70 | −21.3% | 5 | – | – | – | – | – | – |
| Cc1cc(NS(=O)(=O)c2ccc(-c3ccc4c(c3)OCO4)cc2)no1 | 674 nM | < 4.70 | – | – | >1000 µM | – | – | – | – | – |
| Cc1cc(NS(=O)(=O)c2ccc(-c3ccc(F)c(F)c3)cc2)no1 | 1100 nM | < 4.70 | 8.8% | 5 | – | – | – | – | – | – |
| Cc1cc(NS(=O)(=O)c2ccc(-c3ccc(F)cc3)cc2C)no1 | 1470 nM | < 4.70 | 1.3% | 4 | 648.5 µM | – | – | – | – | – |
| CCc1ccc(S(=O)(=O)Nc2cc(C)on2)cc1 | 1610 nM | < 4.70 | −78.9% | 4 | >1000 µM | – | – | – | – | – |
| Cc1cc(NS(=O)(=O)c2ccc(OC(F)(F)F)cc2)no1 | 10700 nM | < 4.70 | 4.0% | 4 | >1000 µM | – | – | – | – | – |
| CCCCc1ccc(S(=O)(=O)Nc2cc(C)on2)cc1 [Compound I] | – | – | – | – | – | 0.0049 µg/mL | 0.85 µg/mL | greater than 1000 μM | 1 | – |
| CCCCc1ccc(S(=O)(=O)Nc2cc(C)on2)cc1 [drawing 232] | 6.03 nM | 6.05 | 19.4% | – | >1000 µM | – | – | – | – | – |
| Cc1cc(NS(=O)(=O)c2ccc(-c3ccc(F)cc3F)cc2)no1 [drawing 258] | – | – | −3.6% | – | >1000 µM | – | – | – | – | – |
| CCCNc1ccc(S(=O)(=O)Nc2cc(C)on2)cc1 [drawing 266] | 360 nM | 4.98 | −17.9% | – | >1000 µM | – | – | – | – | < 4.70 |
